Reference: EP4678629A1, “IONIZABLE LIPID MOLECULE, PREPARATION METHOD THEREFOR AND USE THEREOF” (Maxirna (Shanghai) Pharmaceutical Co., Ltd., priority 2023, dated 2024)

Tests used:
[1] = In vitro transfection of cells with eGFP-mRNA lipid nanoparticle (LNP preparation), fluorescence imaging and flow cytometry; type: cell-based, mouse; conditions: mouse, dc2.4 cells, 200 ng of mRNA per well, after 24 hours; read-out: Cell viability, %
In short: (§1)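 Mouse bone marrow-derived DC2.4 dendritic cells seeded at 2 × 10^5 cells/well in DMEM with 10% FBS, transfected with eGFP-mRNA LNPs the next day at 37 °C, 5% CO2. After 24 hours, viability, eGFP-positive rate and mean fluorescence intensity read by fluorescence imaging and flow cytometry.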

DC2.4 cells = experiment: as above; type: cell-based, mouse; conditions: eGFP positivity rate, DC2.4 cells, 200 ng of mRNA per well, after 24 hours
In short: as §1

[2] = Size and polydispersity index (PDI) of the lipid nanoparticle by dynamic light scattering; type: physicochemical; conditions: LNP encapsulating eGFP mRNA, ionizable lipid/DOPE/cholesterol/DMG-PEG2000 50/10/48.25/1.25 mol%, N/P 12; for Particle size: in nm (unit assumed)
In short: (§2)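 LNPs were made by microfluidic mixing of ionizable lipid/DOPE/cholesterol/DMG-PEG2000 (50/10/48.25/1.25 mol%) in ethanol with eGFP mRNA in 20 mM citrate pH 6.1, N/P 12, then ultrafiltered into DPBS and 0.2 µm filtered. Size and PDI by DLS at 173° backscatter; encapsulation by Ribogreen.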

[3] = Encapsulation efficiency of the lipid nanoparticle (eGFP mRNA) by Ribogreen method; type: physicochemical; conditions: LNP encapsulating eGFP mRNA, ionizable lipid/DOPE/cholesterol/DMG-PEG2000 50/10/48.25/1.25 mol%, N/P 12
In short: as §2

| Structure (SMILES) | viability at 24 h [1] | Positive rate, % (DC2.4 cells) | Particle size [2] | Encapsulation rate, % [3] | PDI [2] |
| --- | --- | --- | --- | --- | --- |
| CCCCCCCCCCCCCOC(=O)CCN(CCCCO)CCCN(CCC(=O)OCCCCCCCCCCCCC)CCC(=O)OCCCCCCCCCCCCC [Example 72, Ditridecyl 3,3'-((3-((4-hydroxybutyl)(3-oxo-3-(tridecyloxy)propyl)amino)propyl)azanediyl)dipropionate] | 84% | 81.19% | 99.70 | 99.70% | – |
| CCCCCCCCCCCCOC(=O)CCCN(CCO)CCCN(CCCC(=O)OCCCCCCCCCCCC)CCCC(=O)OCCCCCCCCCCCC [Example 94, Dodecyl 4-(22-(2-hydroxyethyl)-14,26-dioxo-18,22-diaza-13,27-dioxanonatriacontane-18-yl)butanoate] | 98.6% | 88.07% | – | 96.63% | 0.19 |
| CCCCCCCCCCOC(=O)CCCN(CCO)CCCN(CCCC(=O)OCCCCCCCCCC)CCCC(=O)OCCCCCCCCCC [Example 93, Decyl 4-(20-(2-hydroxyethyl)-12,24-dioxo-16,20-diaza-11,25-dioxapentatriacontane-16-yl)butanoate] | 82.6% | 85.37% | 98.21 | 93.28% | 0.17 |
| CCCCCCCCCCCCCOC(=O)CCCCCCN(CCCCO)CCCN(CCCCCCC(=O)OCCCCCCCCCCCCC)CCCCCCC(=O)OCCCCCCCCCCCCC [Example 35] | 97.2% | 98.59% | 92.18 | 99.50% | 0.12 |
| CCCCCCCCCCCCCOC(=O)CCN(CCCO)CCCN(CCC(=O)OCCCCCCCCCCCCC)CCC(=O)OCCCCCCCCCCCCC [Example 71, Ditridecyl 3,3'-((3-((3-hydroxypropyl)(3-oxo-3-(tridecyloxy)propyl)amino)propyl)azanediyl)dipropionate] | 97.3% | 98.99% | 98.30 | 98.30% | 85.88 |
| CCCCCCCCCCCCOC(=O)CCCN(CCCO)CCCCN(CCCC(=O)OCCCCCCCCCCCC)CCCC(=O)OCCCCCCCCCCCC [Example 103] | 95.3% | 93.80% | 94.10 | 94.31% | 0.14 |
| CCCCCCCCCCCOC(=O)/C=C/CN(C/C=C/C(=O)OCCCCCCCCCCC)CCCN(C/C=C/C(=O)OCCCCCCCCCCC)CCCO [Example 106] | 93.9% | 78.77% | – | 65.99% | 0.28 |
| CCCCCCCCCCCCCOC(=O)CCN(CCO)CCCN(CCC(=O)OCCCCCCCCCCCCC)CCC(=O)OCCCCCCCCCCCCC [Example 70, Ditridecyl 3,3'-((3-((2-hydroxyethyl)(3-oxo-3-(tridecyloxy)propyl)amino)propyl)azanediyl)dipropionate] | 91.2% | 99.07% | – | 97.26% | 0.11 |
| CCCCCCCCCCCCCCOC(=O)CCCCCN(CCCO)CCCN(CCCCCC(=O)OCCCCCCCCCCCCCC)CCCCCC(=O)OCCCCCCCCCCCCCC [Example 54, Ditetradecyl 6,6'-((3-((3-hydroxypropyl)(6-oxo-6-(tetradecyloxy)hexyl)amino)propyl)azanediyl)dihexanoate] | 75.9% | 93.13% | 72.45 | 98.91% | 0.14 |
| CCCCC/C=C\C/C=C\CCCCCCCCOC(=O)CCCN(CCCO)CCCN(CCCC(=O)OCCCCCCCC/C=C\C/C=C\CCCCC)CCCC(=O)OCCCCCCCC/C=C\C/C=C\CCCCC [Example 108] | 92.3% | 93.99% | 95.34 | 92.30% | 0.13 |
| CCCCCCCCCCCOC(=O)CCCN(CCCO)CCCCCN(CCCC(=O)OCCCCCCCCCCC)CCCC(=O)OCCCCCCCCCCC [Example 83] | 84.2% | 97.05% | 99.79 | 99.79% | 73.54 |
| CCCCC/C=C\C/C=C\CCCCCCCCOC(=O)CCCN(CCO)CCCN(CCCC(=O)OCCCCCCCC/C=C\C/C=C\CCCCC)CCCC(=O)OCCCCCCCC/C=C\C/C=C\CCCCC [Example 80, Di((9Z,12Z)-octadeca-9,12-dien-1-yl)4,4'-((3-((2-hydroxyethyl)(4-(((9Z,12Z)-octadeca-9,12-dien-1-yl)oxo)-4-oxobutyl)amino)propyl)azanediyl)dibutanoate] | 87.3% | 94.60% | 99.14 | 99.14% | – |
| CCCCCCCCCCCCCCOC(=O)CCCCCCN(CCO)CCCN(CCCCCCC(=O)OCCCCCCCCCCCCCC)CCCCCCC(=O)OCCCCCCCCCCCCCC [Example 56, Ditetradecyl 7,7'-((3-((2-hydroxyethyl)(7-oxo-7-(tetradecyloxy)heptyl)amino)propyl)azanediyl)diheptanoate] | 80.5% | 93.64% | 64.31 | 99.68% | 0.14 |
| CCCCCCCCCCCCCOC(=O)CN(CCCO)CCCN(CC(=O)OCCCCCCCCCCCCC)CC(=O)OCCCCCCCCCCCCC [Example 77, Ditridecyl 2,2'-((3-((3-hydroxypropyl)(2-oxo-2-(tridecyloxy)ethyl)amino)propyl)azanediyl)diacetate] | 83.9% | 90.71% | 99.78 | 99.78% | 70.33 |
| CCCCCCCCCCCCOC(=O)CCCCCCN(CCCCO)CCCN(CCCCCCC(=O)OCCCCCCCCCCCC)CCCCCCC(=O)OCCCCCCCCCCCC [Example 49, Didodecyl 7,7'-((3-((7-(dodecyloxy)-7-oxoheptyl)(4-hydroxybutyl)amino)propyl)azanediyl)diheptanoate] | 91.6% | 97.38% | 74.58 | 99.79% | 0.15 |
| CCCCCCCCCCCCCOC(=O)CCCCN(CCCO)CCCN(CCCCC(=O)OCCCCCCCCCCCCC)CCCCC(=O)OCCCCCCCCCCCCC [Example 40] | 97.7% | 99.14% | 63.23 | 99.29% | 0.14 |
| CCCCCCCCCCCCOC(=O)CCCCCCCN(CCCO)CCCN(CCCCCCCC(=O)OCCCCCCCCCCCC)CCCCCCCC(=O)OCCCCCCCCCCCC [Example 51, Didodecyl 8,8'-((3-((8-(dodecyloxy)-8-oxooctyl)(3-hydroxypropyl)amino)propyl)azanediyl)dioctanoate] | 92% | 99.64% | 75.07 | 99.28% | 0.18 |
| CC/C=C\C/C=C\CCCOC(=O)CCCCCCCN(CCO)CCCN(CCCCCCCC(=O)OCCC/C=C\C/C=C\CC)CCCCCCCC(=O)OCCC/C=C\C/C=C\CC [Example 7, Di((4Z,7Z)-dec-4,7-dien-1-yl)8,8'-((3-((8-(((4Z,7Z)-dec-4,7-dien-1-yl)oxo)-8-oxooctyl)(2-hydroxyethyl)amino)propyl)azanediyl)dioctanoate] | 76.9% | 75.68% | – | 86.64% | 0.09 |
| CCCCCCCCCCCCCOC(=O)CCCCCCCN(CCO)CCCN(CCCCCCCC(=O)OCCCCCCCCCCCCC)CCCCCCCC(=O)OCCCCCCCCCCCCC [Example 13, Ditridecyl 8,8'-((3-((2-hydroxyethyl)(8-oxo-8-(tridecyloxy)octyl)amino)propyl)azanediyl)dioctanoate] | 91.3% | 93.23% | – | 96.34% | 0.21 |
| CCCCCCCCCCCOC(=O)CN(CCCO)CCCN(CC(=O)OCCCCCCCCCCC)CC(=O)OCCCCCCCCCCC [Example 74, Diundecyl 2,2'-((3-((3-hydroxypropyl)(2-oxo-2-(undecyloxy)ethyl)amino)propyl)azanediyl)diacetate] | 71% | 91.81% | 96.91 | 96.91% | – |
| CCCCCCCCCCCOC(=O)CCN(CCCO)CCCN(CCC(=O)OCCCCCCCCCCC)CCC(=O)OCCCCCCCCCCC [Example 68, Diundecyl 3,3'-((3-((3-hydroxypropyl)(3-oxo-3-(undecyloxy)propyl)amino)propyl)azanediyl)dipropionate] | 94.9% | 98.77% | – | 95.99% | 0.18 |
| CCCCCCCCCCCOC(=O)CCCCCCN(CCCCO)CCCN(CCCCCCC(=O)OCCCCCCCCCCC)CCCCCCC(=O)OCCCCCCCCCCC [Example 37] | 96.6% | 89.37% | 77.57 | 99.26% | 0.15 |
| CCCCCCCCCCCOC(=O)CCCN(CCCCO)CCCN(CCCC(=O)OCCCCCCCCCCC)CCCC(=O)OCCCCCCCCCCC [Example 66, Diundecyl 4,4'-((3-((4-hydroxybutyl)(4-oxo-4-(undecyloxy)butyl)amino)propyl)azanediyl)dibutanoate] | 76.7% | 98.63% | – | 94.12% | 0.14 |
